# What was measured:
# [1] = biological target: C. jejuni α-2,3-sialyltransferase (CST-06, MBP-fusion protein of the full length sialyltransferase) (Campylobacter jejuni, UniProt Q9RGF1); assay: Acceptor specificity and kinetics on p-nitrophenyl-glycosides with malE-cst (CST-06); type: biochemical; details: p-NP-glycoside acceptor at 2.0 mM; for Relative Activity (CST-06): acceptor with lowest activity given the value 1
# Protocol: (§1) Kinetic analysis of acceptors was performed at 37° C. with p-NP-glycosides at concentrations of 0.1 to 10 mM, with CMP-Neu5Ac at 1 mM. Kinetic analysis of the donor CMP-Neu5Ac was performed at a concentration of 20 μM to 1000 μM with p-NP-lactose at 5 mM. Care was taken to ensure that the level of acceptor conversion was between about 5-10% for acceptor kinetic assays.
# (§2) For donor kinetics the amount of conversion of CMP-Neu5Ac was calculated from the amount of product formed compared to an internal standard of 10 μM p-NP-glucose added after the reaction. This peak was well resolved from the acceptor and product peaks. The reactions with p-NP-glycosides were stopped by addition of an equal volume of 2% SDS, 20 mM EDTA and heated to 75° C. for 3 minutes and then diluted 1:1 (or maximally 1:10 for 10 mM concentrations) with water. The samples were then analyzed by CE using a diode array detector scanning between 260 and 300 nm, with the peaks at detected at 290 nm. The peaks from the electropherograms were analyzed using manual peak integration with the P/ACE Station™ software. For rapid detection of enzyme activity, samples from the transferase reaction mixtures were examined by thin layer chromatography on silica-60 TLC plates (E. Merck) as described in Gilbert et al. (1996) supra.
# (§3) The acceptor specificity of the C. jejuni α-2,3-sialyltransferase was examined with a panel of p-NP-glycosides having both β1→4 and β1→3 linkages. The kinetic data for all of the acceptors was collected using the MBP-fusion protein of the full length sialyltransferase. The data for the acceptor specificity were collected first by assaying the enzyme at an acceptor concentration of 2.0 mM. The acceptor with the lowest activity was given the value of 1 for the comparison of activity. These reaction conditions were used in a comparison (Table 3) of the C. jejuni enzyme with the Lst protein from N. meningitidis (Gilbert et al. (1996) J. Biol. Chem. 271: 28271-28276). The N. meningitidis Lst protein was also a MBP protein fusion which was soluble and purified by affinity chromatography.
# [2] = biological target: T1, Lst protein from N. meningitidis (NST-33, MBP protein fusion) (Neisseria meningitidis serogroup B, UniProt P72097); type: biochemical; details: p-NP-glycoside acceptor at 2.0 mM; for Relative Activity (NST-33): acceptor with lowest activity given the value 1
# T1 construct: made in house
# T1 sequence (P72097 whole entry, the tested form may be a part): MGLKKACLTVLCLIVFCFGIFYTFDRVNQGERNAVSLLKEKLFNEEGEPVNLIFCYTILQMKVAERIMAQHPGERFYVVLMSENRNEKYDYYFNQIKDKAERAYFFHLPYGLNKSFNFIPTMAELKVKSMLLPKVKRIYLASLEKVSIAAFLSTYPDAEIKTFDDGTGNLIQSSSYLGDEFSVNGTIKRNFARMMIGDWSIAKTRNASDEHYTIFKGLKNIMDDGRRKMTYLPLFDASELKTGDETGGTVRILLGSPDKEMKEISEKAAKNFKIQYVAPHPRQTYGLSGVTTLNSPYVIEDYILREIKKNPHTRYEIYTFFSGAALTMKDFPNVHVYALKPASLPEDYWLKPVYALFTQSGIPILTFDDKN
# Protocol: as §2, §3
# [3] = tested on: CC(=O)N[C@H]1[C@@H](Oc2ccc([N+](=O)[O-])cc2)O[C@H](CO)[C@H](O)[C@@H]1O[C@@H]1O[C@H](CO)[C@H](O)[C@H](O)[C@H]1O; assay: Acceptor specificity and kinetics on p-nitrophenyl-glycosides with malE-cst (CST-06); type: biochemical, Campylobacter jejuni; details: other: 37° C., p-NP-glycosides 0.1 to 10 mM, CMP-Neu5Ac 1 mM
# Protocol: as §1, §2, §3
# [4] = tested on: CC(=O)N[C@H]1[C@H](Oc2ccc([N+](=O)[O-])cc2)O[C@H](CO)[C@@H](O[C@@H]2O[C@H](CO)[C@H](O)[C@H](O)[C@H]2O)[C@@H]1O; assay: as above; type: biochemical, Campylobacter jejuni; details: other: 37° C., p-NP-glycosides 0.1 to 10 mM, CMP-Neu5Ac 1 mM
# Protocol: as §1, §2, §3
# [5] = tested on: [H][C@@]1(O[C@H]2[C@H](O)[C@@H](O)[C@H](Oc3ccc([N+](=O)[O-])cc3)O[C@@H]2CO)O[C@H](CO)[C@H](O)[C@H](O)[C@H]1O; assay: as above; type: biochemical, Campylobacter jejuni; details: other: 37° C., p-NP-glycosides 0.1 to 10 mM, CMP-Neu5Ac 1 mM
# Protocol: as §1, §2, §3
# C. jejuni α-2,3-sialyltransferase (CST-06, MBP-fusion protein of the full length sialyltransferase), sequence (Q9RGF1 entry or part of it): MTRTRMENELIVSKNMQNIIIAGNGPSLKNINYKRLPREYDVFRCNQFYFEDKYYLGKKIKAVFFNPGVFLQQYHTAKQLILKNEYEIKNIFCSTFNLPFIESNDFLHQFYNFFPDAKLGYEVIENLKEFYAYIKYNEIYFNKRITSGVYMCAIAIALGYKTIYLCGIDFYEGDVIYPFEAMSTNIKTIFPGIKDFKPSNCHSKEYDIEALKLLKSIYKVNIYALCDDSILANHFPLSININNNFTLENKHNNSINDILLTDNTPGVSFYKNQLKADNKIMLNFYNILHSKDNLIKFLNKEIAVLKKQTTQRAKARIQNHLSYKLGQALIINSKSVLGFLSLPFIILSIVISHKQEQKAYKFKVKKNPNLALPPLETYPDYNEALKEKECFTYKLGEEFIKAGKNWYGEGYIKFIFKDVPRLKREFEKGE
Compound,Relative Activity (CST-06) [1],Relative Activity (NST-33) [2],Enzyme activity mU/mg (CST-06) [1],Enzyme activity mU/mg (NST-33) [2],Km [3],Km [4],Km [5]
"O=[N+]([O-])c1ccc(OC2OC(CO)C(OC3OC(CO)C(OC4OC(CO)C(O)C(O)C4O)C(O)C3O)C(O)C2O)cc1 (stereo not drawn) [Gal-α-1,4-Gal-β-Glc]",0,5.6,–,–,–,–,–
"O=[N+]([O-])c1ccc(O[C@@H]2O[C@H](CO)[C@@H](O[C@@H]3O[C@H](CO)[C@H](O)[C@H](O)[C@H]3O)[C@H](O)[C@H]2O)cc1 [Gal-β-1,4-Glc]",4.9,7.8,mU/mg = 420,mU/mg = 30,–,–,–
O=[N+]([O-])c1ccc(O[C@@H]2O[C@H](CO)[C@H](O)[C@H](O)[C@H]2O)cc1 [Gal-β],1,1.2,–,–,–,–,–
"C. jejuni α-2,3-sialyltransferase (CST-06, MBP-fusion protein of the full length sialyltransferase) (Campylobacter jejuni)",–,–,–,–,2.7 mM ± 0.1 mM,0.8 mM ± 0.2 mM,1.3 mM ± 0.12 mM

# Reference: US7259239B2, “Lipopolysaccharide α-2,3 sialyltransferase of campylobacter jejuni and its uses” (priority 1998, dated 2007)
